{"source": "patent US20240076347A1", "about": "“METHODS FOR PREVENTING FUNGAL INFECTIONS” (Cidara Therapeutics, Inc., priority 2016, published 2024)", "key": {"C. albicans": {"tested_on": "C. albicans", "test": "In vitro susceptibility testing (CLSI M27-A3)", "type": "cell-based", "conditions": "Candida albicans, 24 h", "description": "Strains. Ten clinical Candida strains were used for the in vivo treatment studies, including four C. albicans, three C. glabrata, and three C. parapsilosis strains (Table 18). This group was selected to encompass phenotypic variability in susceptibility to triazoles and echinocandins and based on similar fitness in the animal model as defined by the amount of growth in control animals over 24 h. The organisms were maintained, grown, and quantified on Sabouraud's dextrose agar (SDA) plates.\nIn vitro susceptibility testing. All isolates were tested in accordance with the standards in CLSI document M27-A3. The MICs were determined visually after 24 h of incubation as the lowest concentration of drug that causes a significant diminution (≥50%) of growth compared to controls. MICs were determined on three separate occasions in duplicate."}, "[1]": {"tested_on": "Candida albicans (ATCC SC5314)", "test": "Disseminated candidiasis in immunocompetent DBA/2 mice, prophylaxis, kidney fungal burden", "type": "in vivo", "description": "Cultures of Candida albicans (ATCC SC5314) were grown overnight at 37° C. in an ambient atmosphere on Sabouraud agar. Cultures were removed from the incubator, aseptically transferred to tubes of phosphate buffered saline (PBS), and an optical density was determined at 600 nm. The cultures were diluted to provide a challenge inoculate of approximately 5.0 log10 CFU per mouse in a volume of 100 μL. Each animal was administered an intravenous (IV) challenge in a volume of 100 IL on Day 0. Instillation of the challenge constituted time 0 hour for the study.\nMice were treated with CD101 one time via subcutaneous (SC) injection prior to challenge on either Day −5, Day −3, Day −1 or Day 0 per Table 3. Micafungin and vehicle controls were administered on Day 0 as per Table 3. Day 0 treatment or control administration occurred immediately following the challenge. Test articles were administered in a volume of 0.5 mL.\nThe primary endpoint used to assess progress of the infection was mean CFU burden per gram of kidney tissue. At 24 hours post-challenge, mice were humanely euthanized via CO2 overexposure. Kidneys were aseptically removed, weighed, and transferred to sterile tubes containing 2 mL of PBS. Tissues were homogenized with a mini-bead beater. Serial dilutions of the tissue homogenates were plated on Sabouraud dextrose agar plates and incubated at 37° C. for 24-48 hours. CFU/g tissue was determined from colony counts."}, "C. albicans biofilms": {"tested_on": "C. albicans biofilms", "test": "Time lapse microscopy of biofilm formation", "type": "cell-based, Candida albicans", "conditions": "up to 16 h", "description": "The effective CD101 concentration obtained from the above experiments was used to monitor its effect on biofilm formation in real time using TLM, which involves capturing real-time images of a single frame at specific time intervals, allowing temporal monitoring of the interactions occurring between the drug and Candida biofilms. Captured images were combined in a time sequence, resulting in an animation depicting the sequence of events that occurred with the passage of time. Briefly, the discs with C. albicans (adhered for 90 min as above) were placed in a 35-mm-diameter glass-bottom Petri dish (MiTek Corp., Ashland, MA). […] Phase contrast images for this interaction were captured immediately from 0 h and followed up to 16-17 h on a Leica DMI 6000 B inverted microscope connected to a Retiga EXi Aqua camera (Q-imaging Vancouver British Columbia). To determine the structural changes in the maturing biofilm, both acquisition and analysis of a series of horizontal (xy) optical sections of the biofilm was done using Metamorph Imaging software (Molecular Devices, Downington, PA). Disc incubated with media alone was used as control."}, "[2]": {"test": "Early pharmacokinetic studies, SC tolerability", "type": "in vivo, rats and monkeys", "conditions": "lower doses (≤5 mg/kg)"}, "[3]": {"test": "Tissue distribution in SD rats after IV dose", "type": "in vivo", "conditions": "Sprague-Dawley, rat, 5 mg/kg IV", "description": "The in vitro activity of CD101 was evaluated against 153 A. fumigatus clinical isolates collected as part of the 2014 and 2015 JMI international SENTRY surveillance program. Susceptibility was determined by measuring the minimal effective concentration (MEC) values in accordance with CLSI broth microdilution guidelines (M38-A2). In vivo tissue distribution of CD101 in SD rats (N=3/time up to 5 d) after a 5 mg/kg IV CD101 dose. Plasma/tissue concentrations were measured by LC-MS/MS."}, "[4]": {"test": "Pharmacokinetic profile in female rats, SC and IV", "conditions": "rat, in vivo", "description": "Pharmacokinetic Profile of CD101. The pharmacokinetic (PK) profile of CD101 in female rats (three per group) was characterized."}, "[5]": {"tested_on": "C. albicans SC-5314 biofilms", "test": "Adhesion phase biofilms (prevention) on silicone elastomer discs", "type": "cell-based, Candida albicans", "description": "Biofilms were formed on silicone elastomer (SE) discs using a catheter-associated-biofilm model (Chandra et al., Nature Protocols 3:1909, 2008; Chandra et al., J. […] Chandra et al., J. Dental Research 80: 903, 2001). For evaluation of activity against adhesion phase biofilms (prevention), Candida cells were adhered to catheter discs for 90 min. […] Discs incubated with fluconazole or media alone were used as controls in all experiments. […] Chandra et al., J. […] Chandra et al., J. Dental Research 80: 903, 2001). Following incubation with drugs, discs were transferred to fresh plates containing phosphate buffered saline with XTT and menadione, incubated for 3 h at 37° C. and optical density was read at 492 nm. Separate batches of biofilms were stained with fluorescent dyes (FUN1™, CONA) and observed under Confocal Scanning Laser Microscope (CSLM) to evaluate biofilm architecture and thickness (Chandra et al., Nature Protocols 3:1909, 2008; Chandra et al., J. […] Statistical analyses for all data were performed using GraphPad Prism 6 software. Drug treated groups were compared to control untreated groups using unpaired t-tests."}}, "note": "Numbered stars: 1 amine (or outer) side, 2 acyl side, 3 side chain; on linkers, the order of the positions; unused ones are H or OH. Bridge positions count the residues as written; N and C are the ends. Square brackets hold non-standard residues; d marks the D form. Peptide text beside a SMILES is read from it. * marks the point of attachment. ξ: configuration not given here. Orn(4R-OH,5R-OCH2CH2NMe3+) = C[N+](C)(C)CCO[C@@H](N[*:3])[C@H](O)C[C@H](N[*:1])C(=O)[*:2]; pTerphenylCO(4''-OnC5H11) = CCCCCOc1ccc(-c2ccc(-c3ccc(C(=O)*)cc3)cc2)cc1; hTyr(3S-OH,4S-OH) = N[C@H](C(=O)O)[C@H](O)[C@@H](O)c1ccc(O)cc1; X1 = C[C@H]1CN([*:1])C(C(=O)[*:2])C1O; Hyp = O=C(O)[C@@H]1C[C@@H](O)CN1; ξT = CC(O)C(N)C(=O)O"}
{"smiles": "CCCCCOc1ccc(-c2ccc(-c3ccc(C(=O)N[C@H]4C[C@@H](O)[C@@H](OCC[N+](C)(C)C)NC(=O)C5C(O)[C@@H](C)CN5C(=O)[C@H]([C@@H](C)O)NC(=O)[C@H]([C@H](O)[C@@H](O)c5ccc(O)cc5)NC(=O)[C@@H]5C[C@@H](O)CN5C(=O)C(C(C)O)NC4=O)cc3)cc2)cc1", "note": "(stereo partly drawn) [CD101] ({pTerphenylCO(4''-OnC5H11)}-[Orn(4R-OH,5R-OCH2CH2NMe3+)][ξT][Hyp][hTyr(3S-OH,4S-OH)]T[X1]; lactam 1-C)", "values": [{"measurement": "MIC", "setting": "C. albicans; strain 98-17", "result": 0.06, "unit": "µg/mL"}, {"measurement": "MIC", "setting": "C. albicans; strain 98-210", "result": 0.03, "unit": "µg/mL"}, {"measurement": "MIC", "setting": "C. albicans; strain 580", "result": 0.06, "unit": "µg/mL"}, {"measurement": "MIC", "setting": "C. albicans; strain K-1", "result": 0.06, "unit": "µg/mL"}, {"measurement": "kidney CFU", "setting": "[1]; 3 mg/kg SC Day −1, all but one animal", "result": "cleared the infection completely"}, {"measurement": "kidney CFU", "setting": "[1]; 3 mg/kg SC on Day −5 and Day −3 (two doses, inadvertent)", "result": "completely cleared the infection"}, {"measurement": "kidney CFU", "setting": "[1]; 10 or 30 mg/kg SC at all pre-challenge time points, 24 hr harvest", "result": "cleared the infection completely"}, {"measurement": "biofilm formation in real time", "setting": "C. albicans biofilms; 0.25 μg/ml added to 3 h formed biofilms", "result": "remained stunted and failed to grow into mature biofilms"}, {"measurement": "biofilm formation in real time", "setting": "C. albicans biofilms; 0.25 μg/ml added to cells adhered 90 min", "result": "only adhered cells with stunted growth, which failed to grow into mature biofilms"}, {"measurement": "tolerability of subcutaneous administration", "setting": "[2]", "result": "well-tolerated"}, {"measurement": "half-life", "setting": "[3]; plasma, read-out: t1/2 in plasma (converted)", "result": 39, "unit": "h"}, {"measurement": "half-life", "setting": "[3]; all tissues studied, read-out: t1/2 in tissues", "result": "40 to 77", "unit": "h"}, {"measurement": "Kp", "setting": "[3]; liver, kidney, lung, spleen, read-out: tissue/plasma exposure ratios", "result": "~4"}, {"measurement": "Tmax", "setting": "[4]; SC", "result": "8 to 24", "unit": "h"}, {"measurement": "bioavailability", "setting": "[4]; sc, 10 mg/kg", "result": 97, "unit": "%"}, {"measurement": "half-life", "setting": "[4]; subcutaneous, 10 mg/kg, read-out: t½ (converted)", "result": 48, "unit": "h"}, {"measurement": "biofilm architecture (CSLM)", "setting": "[5]; 0.25 and 1 μg/ml", "result": "only remnants of adhered cells, and no biofilm maturation"}, {"measurement": "biofilm metabolic activity (XTT)", "setting": "[5]; 0.25 and 1 μg/ml, 24 h, vs untreated, P<0.05", "result": "significantly less biofilms"}, {"measurement": "thickness of biofilms", "setting": "[5]; CD101 exposed, untreated control 36 μm, P<0.05", "result": 4, "unit": "μm"}]}
